Assay [1] concerns the target T1, 5-hydroxytryptamine receptor 2A (Rattus norvegicus, UniProt P14842). In words: Affinity for 5-hydroxytryptamine 2A receptor in rat brain cortex by ability to displace [3H]ketanserin. Format: tissue-based.
Assay [2] addresses T1, 5-hydroxytryptamine receptor 2A. Description: Affinity 5-hydroxytryptamine 2A receptor of the rat brain cortex was assessed on the basis of their ability to displace [3H]ketanserin.
For assay [3] the target is unchanged. In words: (§1) Affinity at 5-hydroxytryptamine 2A receptor of the rat brain cortex was assessed on the basis of their ability to displace [3H]ketanserin.
The target is the same in assay [4]. The description is as §1. This is another data set of the same source.

This note sets out measurements from ChEMBL document CHEMBL1133177, “Application of similarity matrices and genetic neural networks in quantitative structure-activity relationships of 2- or 4-(4-Methylpiperazino)pyrimidines: 5-HT(2A) receptor antagonists” (J Med Chem, 2000).

A value given as a limit tells only on which side of the number the result lay.

As a reminder, the Ki is the dissociation constant of the complex between target and ligand, obtained from inhibition or displacement. A lower Ki goes with a stronger hold on the target.

T1 sequence (P14842 whole entry): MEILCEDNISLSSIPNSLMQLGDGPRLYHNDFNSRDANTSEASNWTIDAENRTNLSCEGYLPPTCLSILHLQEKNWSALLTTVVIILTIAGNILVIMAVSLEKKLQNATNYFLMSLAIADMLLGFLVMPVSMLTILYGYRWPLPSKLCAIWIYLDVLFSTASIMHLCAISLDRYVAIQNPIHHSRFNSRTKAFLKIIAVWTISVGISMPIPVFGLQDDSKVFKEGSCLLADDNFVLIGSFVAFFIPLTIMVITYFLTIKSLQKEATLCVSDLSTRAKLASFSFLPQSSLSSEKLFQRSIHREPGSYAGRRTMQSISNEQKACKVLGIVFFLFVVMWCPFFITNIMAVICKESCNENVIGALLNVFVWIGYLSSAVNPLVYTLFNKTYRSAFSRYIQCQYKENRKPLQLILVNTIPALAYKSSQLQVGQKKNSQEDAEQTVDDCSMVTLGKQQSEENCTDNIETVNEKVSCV

In the case of `CN1CCN(c2nc(-c3ccoc3)cc(-c3cc4ccccc4s3)n2)CC1`, the Ki in assay [1] was 55 nM.

For `CN1CCN(c2nc(-c3ccsc3)cc(-c3cccs3)n2)CC1`, affinity in assay [1] was put at a Ki of 20.9 nM.

The molecule `CN1CCN(c2nc(-c3ccco3)cc(-c3cc4ccccc4o3)n2)CC1` gave a Ki in assay [1] of 110 nM.

On to `CN1CCN(c2nc(-c3ccco3)cc(-c3cc4ccccc4s3)n2)CC1`, for which the Ki in assay [1] is 37.2 nM.

Take `CN1CCN(c2nc(Cl)cc(-c3ccoc3)n2)CC1`: the Ki is 41 nM in assay [2] and 40.7 nM in assay [1].

For the molecule `Cc1ccc(-c2cc(N3CCN(C)CC3)nc(Cl)n2)cc1`, the Ki in assay [3] is 4220 nM; in assay [4], 4270 nM.

In assay [1], `CN1CCN(c2nc(-c3ccco3)cc(-c3cccs3)n2)CC1` showed a Ki of 37.2 nM.

As for `CN1CCN(c2cc(-c3ccco3)nc(Cl)n2)CC1`, the Ki in assay [3] was 5960 nM; in assay [4], 6030 nM.

As to `CN1CCN(c2cc(-n3ccnc3)ncn2)CC1`, the Ki in assay [3] and in assay [4] was above 10000 nM throughout.

In turn, `Cc1c(-c2cccs2)nc(N2CCN(C)CC2)nc1-c1cccs1` had a Ki in assay [1] of 17 nM.

`CN1CCN(c2cc(-c3cccs3)nc(Cl)n2)CC1`: the Ki is 2720 nM in assay [3] and 2690 nM in assay [4].

Turning to `CN1CCN(c2nc(Cl)cc(-c3cccs3)n2)CC1`, the Ki was 353 nM in assay [3] and 347 nM in assay [4].

In assay [1], `CN1CCN(c2nccc(-c3ccsc3)n2)CC1` had a Ki of 191 nM.

On to `Cc1ccc(-c2cc(Cl)nc(N3CCN(C)CC3)n2)cc1`, for which the Ki in assay [2] was 582 nM; in assay [1], 575 nM.

In the case of `CN1CCN(c2nccc(-n3ccnc3)n2)CC1`, the inhibition constant (Ki) in assay [2] is 384 nM; in assay [1] it was 380 nM.

`CN1CCN(c2nc(-c3cc4ccccc4o3)cc(-c3cccn3C)n2)CC1` showed a Ki in assay [1] of 135 nM.
